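Assay format: 96-well plates, 48-hour exposure. GI50: concentration for 50% inhibition of growth.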 Calls of active or inactive are those of the source. Rule as the data show it: active = GI50 up to about 1.1 µM and inactive = higher.
How the values were obtained:
Experiment in all cases: NCI-60 cell line screen, 48 h
MCF7 = tested on: MCF7
SK-OV-3 = tested on: SK-OV-3
KM12 = tested on: KM12
UACC-62 = tested on: UACC-62
SW-620 = tested on: SW-620
CCRF-CEM = tested on: CCRF-CEM
ACHN = tested on: ACHN
SK-MEL-28 = tested on: SK-MEL-28
HCT-116 = tested on: HCT-116
NCI-H226 = tested on: NCI-H226
RXF 393 = tested on: RXF 393
MDA-MB-435 = tested on: MDA-MB-435
U-251 = tested on: U-251
IGROV-1 = tested on: IGROV-1
SF-539 = tested on: SF-539
MDA-MB-231 = tested on: MDA-MB-231
OVCAR-5 = tested on: OVCAR-5
DU-145 = tested on: DU-145

Measured: GI50

COc1ccc(Oc2nc3c(N)cc(C(F)(F)F)cc3nc2-c2ccccc2)cc1
inactive: MCF7 11.6 µM | SK-OV-3 13.3 µM | KM12 12.8 µM | UACC-62 31.4 µM | SW-620 58.1 µM | CCRF-CEM 38.4 µM | ACHN 28.2 µM | SK-MEL-28 85.9 µM | HCT-116 27.7 µM | NCI-H226 11.9 µM | RXF 393 11.6 µM | MDA-MB-435 46.3 µM | U-251 35.6 µM | IGROV-1 13.6 µM | SF-539 23.5 µM | MDA-MB-231 24.8 µM

COc1ccc([N+](=O)[O-])cc1[I+]c1cc([N+](=O)[O-])ccc1OC
inactive: MCF7 31.9 µM | SK-OV-3 29.4 µM | KM12 22.7 µM | UACC-62 23.2 µM | SW-620 45.3 µM | CCRF-CEM 25.4 µM | ACHN 74.3 µM | SK-MEL-28 7.64 µM | OVCAR-5 > 100 µM | HCT-116 89.5 µM | NCI-H226 53.2 µM | RXF 393 27.7 µM | DU-145 > 100 µM | MDA-MB-435 21.3 µM | U-251 16.1 µM | IGROV-1 23 µM | SF-539 44 µM | MDA-MB-231 > 100 µM

Cc1cc(C)nc(NS(=O)(=O)c2ccc(NC(=O)c3cccc4c(Nc5ccc(S(=O)(=O)N=C(N)N)cc5)c5ccccc5nc34)cc2)n1
inactive: SK-OV-3 > 100 µM | KM12 6.17 µM | UACC-62 29.9 µM | SW-620 9.48 µM | CCRF-CEM 45.6 µM | ACHN 47.1 µM | SK-MEL-28 33.4 µM | OVCAR-5 > 100 µM | HCT-116 32.4 µM | RXF 393 15.6 µM | U-251 33.9 µM | IGROV-1 40.4 µM | SF-539 17.3 µM

O=[N+]([O-])c1cc(Cl)ccc1S(=O)(=O)c1ccccc1
inactive: MCF7 > 100 µM | SK-OV-3 > 100 µM | KM12 > 100 µM | UACC-62 53 µM | SW-620 > 100 µM | CCRF-CEM 29.8 µM | ACHN > 100 µM | SK-MEL-28 > 100 µM | OVCAR-5 > 100 µM | HCT-116 35.5 µM | NCI-H226 67.6 µM | RXF 393 54.6 µM | DU-145 > 100 µM | MDA-MB-435 > 100 µM | U-251 > 100 µM | IGROV-1 > 100 µM | SF-539 > 100 µM | MDA-MB-231 51.3 µM

CN(C)CC1CCC/C1=N\O (stereo not drawn)
inactive: SK-OV-3 > 100 µM | UACC-62 > 100 µM | SW-620 > 100 µM | CCRF-CEM > 100 µM | ACHN > 100 µM | SK-MEL-28 > 100 µM | OVCAR-5 > 100 µM | HCT-116 > 100 µM | NCI-H226 > 100 µM | RXF 393 > 100 µM | U-251 > 100 µM | IGROV-1 > 100 µM | SF-539 > 100 µM

O=C(CCc1n[nH]c(=S)o1)Nc1cc(Cl)ccc1Cl
inactive: SK-OV-3 > 100 µM | KM12 > 100 µM | UACC-62 > 100 µM | SW-620 15.3 µM | CCRF-CEM 33.8 µM | ACHN 61.1 µM | SK-MEL-28 > 100 µM | OVCAR-5 > 100 µM | HCT-116 16.1 µM | NCI-H226 > 100 µM | U-251 34.4 µM | IGROV-1 > 100 µM | SF-539 > 100 µM

Cc1nc(C)c(N2CCN(S(N)(=O)=O)CC2)c(O)n1
inactive: MCF7 > 100 µM | SK-OV-3 > 100 µM | KM12 > 100 µM | UACC-62 > 100 µM | SW-620 > 100 µM | CCRF-CEM > 100 µM | ACHN > 100 µM | SK-MEL-28 > 100 µM | HCT-116 > 100 µM | NCI-H226 > 100 µM | RXF 393 > 100 µM | DU-145 > 100 µM | MDA-MB-435 > 100 µM | U-251 > 100 µM | IGROV-1 > 100 µM | SF-539 > 100 µM | MDA-MB-231 > 100 µM
